Columns and labels:
Format in all cases: in vivo
[1] = tested on: Frankliniella intonsa; experiment: Outdoor pest control test on open-field peppers, F. intonsa; settings: for Contol efficacy (%) (control value) / Survival (%) Mean / Survival (%) I / Survival (%) II / Survival (%) III: 3 days after treatment, dose a.i. μg/mL: 7MT 100, Spinetoram 12.5; for Survival (%) Mean: mean of 3 replicates; for Survival (%) I: replicate I; for Survival (%) II: replicate II; for Survival (%) III: replicate III
Protocol: (§1) Each treatment was repeated three times using the egg mass method in open pepper production areas located in Songcheon-dong, Andong-si, Gyeongsangbuk-do. Each test group was pepper individuals, and the distance between these individuals was maintained at least 6 m. The amount of chemical agent sprayed on each pepper individual was 30 mL, and the chemical agent was sufficiently sprayed on the entire peppers. […] […] The control group was treated with a distilled chemical agent. The density of thrips was calculated before treatment and on days 1 and 3 after treatment. The classification of these three different thrips was carried out by using the shape identification method presented by Kim et al. (2021).
(§2) For the indoor behavioral experiment, one-way ANOVA analysis was performed using PROC GLM (SAS Institute, 1989). The effectiveness of outdoor pest control was confirmed by calculating the survival rate and performing […] and two-way ANOVA analysis. Comparison between treatment means was determined based on a Type I error probability of 0.05 using an LSD method.
(§3) A test was conducted to check the outdoor control efficiency by adding a contact pheromone causing behavior disruption to Spinetoram having a relatively high control efficiency against thrips. At the end of May 2023, when the test was conducted, Frankliniella occidentalis and Frankliniella intonsa appeared around peppers in open areas in the Andong region. By taking advantage of this situation, treatment with a chemical agent alone and treatment with a chemical agent/contact pheromone mixture were implemented. In the untreated control group, an increase in the density of two thrips was observed. However, in the mixed treatment with Spinetoram, an overall decrease in the density was clearly observed.
(§4) To analyze the results in detail, a control value on the 3rd day of treatment was calculated. […] The average survival rate was lowered in all treatment cases compared to no treatment cases. […] At this time, when the contact pheromone was added, the control value increased for both thrips.

[2] = tested on: Total thrips; experiment: Outdoor pest control test on open-field peppers, total thrips; settings: 3 days after treatment, dose a.i. μg/mL: 7MT 100, Spinetoram 12.5; for Survival (%) Mean: mean of 3 replicates; for Survival (%) I: replicate I; for Survival (%) II: replicate II; for Survival (%) III: replicate III
Protocol: as §1, §2, §3, §4

[3] = tested on: Frankliniella occidentalis; experiment: Outdoor pest control test on open-field peppers, F. occidentalis; settings: for Contol efficacy (%) (control value) / Survival (%) Mean / Survival (%) I / Survival (%) II / Survival (%) III: 3 days after treatment, dose a.i. μg/mL: 7MT 100, Spinetoram 12.5; for Survival (%) Mean: mean of 3 replicates; for Survival (%) I: replicate I; for Survival (%) II: replicate II; for Survival (%) III: replicate III
Protocol: as §1, §2, §3, §4

[4] = tested on: Frankliniella occidentalis; experiment: Behavioral test (petri dish, treated vs control kidney bean feed), F. occidentalis; settings: 10 μL on filter paper, 10 minutes, FIG. 1B
Protocol: (§5) FIGS. 1A, 1B, and 1C show the results of behavioral tests in a container for behavior analysis (A) for two types of thrips (F. occidentalis (B) and F. intonsa (C)), in the container for behavior analysis (A), a […] placed on a filter paper disk was treated with 7-methyltricosane (7TM), the control diet was treated with acid solvent, after 10 minutes, the number of thrips that reached each feed was counted, each treatment was repeated four times by exchanging the positions of the treatment and control groups, asterisk indicates a significant difference with type I error=0.05 (LSD test), and “NS” means no significant difference; and
(§6) A filter paper was unfolded in the behavior test site, and two kidney beans were placed away at a distance of 50 mm as bait. Each of the test substances was applied on top of each feed. In the test substance treatment, 10 μL of 7TM substance was sprayed onto 5 mm circular filter paper. In the case of the control group, the same volume of hexane was sprayed onto a filter paper as a test substance. Each circular filter paper differently treated was placed on any one of the two kidney beans. Next, test individuals were placed in the center 40 mm away from both feed sources. Afterward, the individuals having reached each feed were counted for 10 minutes at room temperature. 10 individuals were used in each test, and each test was repeated 4 times. The positions of the control group and the treatment group were exchanged in each repetition. […]
(§7) For the indoor behavioral experiment, one-way ANOVA analysis was performed using PROC GLM (SAS Institute, 1989). […] Comparison between treatment means was determined based on a Type I error probability of 0.05 using an LSD method.
(§8) To analyze the behavioral responses of thrips with affinity for a contact pheromone, a behavior analysis container (shown in FIG. 1(A)) was manufactured using a petri dish. Thrips were prepared to be near the treated feed, and after inducing the behavioral responses for 10 minutes, some of the thrips staying near the pheromone-treated feed were counted.

[5] = tested on: Frankliniella intonsa; experiment: Behavioral test (petri dish, treated vs control kidney bean feed), F. intonsa; settings: 10 μL on filter paper, 10 minutes, FIG. 1C
Protocol: as §5, §6, §7, §8

[6] = contact pheromone alone, 3rd day of treatment

Molecule	Contol efficacy (%) (control value) [1]	Survival (%) Mean [1] [%]	Survival (%) I [1] [%]	Survival (%) II [1] [%]	Survival (%) III [1] [%]	Contol efficacy (%) (control value) [2]	Survival (%) Mean [2] [%]	Survival (%) I [2] [%]	Survival (%) II [2] [%]	Survival (%) III [2] [%]	Contol efficacy (%) (control value) [3]	Survival (%) Mean [3] [%]	Survival (%) I [3] [%]	Survival (%) II [3] [%]	Survival (%) III [3] [%]	further results
CCCCCCCCCCCCCCCCC(C)CCCCCC (centres unmarked) [7MT, 7-Methyltricosane]	32.2	115.7	133.3	150.0	63.6	12.4	222.2	300.0	233.3	133.3	31.2	358.3	500.0	300.0	275.0	density of thrips vs no treatment (in words) [1, 6]: statistically significantly reduced; density of thrips vs no treatment (in words) [3, 6]: it was not; behavioral response to pheromone-treated feed ([4]; F. occidentalis adult females): high preference; behavioral response to pheromone-treated feed ([4]; F. occidentalis adult males): avoiding feed sprayed with the contact pheromone; behavioral response to pheromone-treated feed ([4]; F. occidentalis second-instar larvae): did not show specific selection behavior; behavioral response to pheromone-treated feed ([5]; F. intonsa adult females): high preference; behavioral response to pheromone-treated feed ([5]; F. intonsa adult males): avoiding feed sprayed with the contact pheromone; behavioral response to pheromone-treated feed ([5]; F. intonsa second-instar larvae): did not show specific selection behavior
Spinetoram [reference compound]	80.3	33.6	40.0	22.2	38.5	76.2	60.5	73.3	46.2	61.1	71.9	146.4	150.0	175.0	114.3	–
